Patent US5059624A, “Guanidine derivatives having hypotensive activity, composition containing them and process for obtaining them” (Consiglio Nazionale Delle Ricerche, priority 1988, dated 1991)

Tested on: male Wistar rats
Test: Comparison with known active ingredients in male Wistar rats under sodium thiopental anaesthesia, rapid i.v. or 5 min infusion
Assay type: in vivo, rat (male Wistar)
Description: In order to compare the activity of the compounds of the present invention to that of the products of the prior art, various doses of known anti-hypertensive, hypotensive and vasoactive drugs were administered to male Wistar rats under general anaesthesia by sodium thiopental (50 mg/kg, i.p.). The administration was effected through "rapid" i.v. route or through intravenous infusion (inf.) for a time of 5 minutes.
The dose of each product is referred to the base, and the volumes injected were of 100 mcl in case of i.v. administration and […] total (0.9% sodium chloride solution) in case of infusion. The various parameters were evaluated in the same way as in the preceding experiments.

[1] = 5 mg/kg, inf., maximum response

Compound: COC(=O)[C@H]1[C@H]2C[C@@H]3c4[nH]c5cc(OC)ccc5c4CCN3C[C@H]2C[C@@H](OC(=O)c2cc(OC)c(OC)c(OC)c2)[C@@H]1OC [Reserpine]
- Δ AP DIASTOLIC [1]: -24 ± 5 mmHg
- Δ AP SYSTOLIC [1]: -31 ± 6 mmHg
- Δ HR [1]: -47 ± 9 beats/min
- Δ dp/dt [1]: -1580 ± 134 mmHg/sec
- general effects on the various haemodynamic parameters (in words) (rat): general "depressive" effects
